What was measured:
[1] = tested on: EGFR phosphorylation in Ba/F3-EGFR^L858R/T790M/C797S engineered cells; test: Cell phosphorylation inhibition effect (pEGFR ELISA); type: cell-based, human; settings: for IC50: Mus musculus, Ba/F3 EGFR-L858R, EGF stimulated, ELISA pY1068, read-out: Cellular pEGFR Inhibition IC50 (nM) Ba/F3-EGFR^L858R/T790M/C797S; for inhibitory effect on EGFR phosphorylation (in words): Ba/F3-EGFR^L858R/T790M/C797S engineered cells
Protocol: Cell line: BaF3 cells with stable overexpression of EGFR^T790M/C797S/L858R mutant genes, named BaF3-EGFR^T790M/C797S/L858R cells.
a) The medium was preheated in a 37° C. water bath.
b) The cryopreservation tube was taken from the liquid nitrogen tank, quickly placed in a 37° C. water bath, and melted completely within 1 minute.
c) The cell suspension was transferred to a 15 mL centrifuge tube containing a 10 mL medium and centrifuged at 1000 rpm for 4 minutes.
d) The supernatant was discarded, the cells were resuspended in a 1 mL medium and transferred to a […] culture dish containing a 10 mL medium, 20% serum and 50 ng/mL EGF were administered to the first-generation medium, and culture was conducted in a 37° C. and 5% CO2 incubator.
b) The cells in the culture dish were blown evenly with a 5 mL pipette, and 500 μL of the cells were pipetted out to be inoculated into a new […] culture dish and cultured in a 37° C. and 5% CO2 incubator.
a) The compound to be tested (10 mM stock solution) was diluted with 100% DMSO to 1 mM, and diluted with a culture solution in a 24-well plate to prepare of a working solution of 2 μM concentration.
b) The 2 μM working solution was diluted with a triple dilution method to obtain working solutions with approximate concentrations of 2 μM, 600 nM, 200 nM, 60 nM, and 20 nM.
a) The cells at the logarithmic growth phase were centrifuged at 1000 rpm for 4 minutes, resuspended with a medium (containing 10% serum), and counted.
b) The cells were inoculated into a 24-well plate with a cell density of 2 million cells/well, and placed in a 37° C. and 5% CO2 incubator for stabilization overnight.
a) The prepared compound was added to a 96-well plate, with 100 μL per well. The final concentrations were 1 μM, 300 nM, 100 nM, 30 nM, 10 nM, and 0 nM, and the final concentration of DMSO was 0.2%. A medium and 0.2% DMSO served as a blank control.
b) 100 ng/mL EGF was added at 1 hour and 45 minutes of administration. After 15 minutes of EGF treatment, the cells were collected and centrifuged to obtain the supernatant.
(5) Detection of Intracellular pEGFR Content
The content of EGFR and pEGFR in the supernatant was determined using an ELISA kit (Abcam, ab126439-EGFR (pY1068)+total EGFR Human ELISA).
The data was analyzed using GraphPad Prism 8.0 software to obtain a fitted curve of activity of the compounds. The IC50 of the compounds was fitted from nonlinear regression equation.

[2] = molecular target: EGFR^L858R/T790M/C797S kinase (Homo sapiens (Human), UniProt P00533, C797S/L858R/T790M); test: EGFR^L858R/T790M/C797S kinase inhibitory activity experiment; type: biochemical; settings: in vitro
EGFR^L858R/T790M/C797S kinase, sequence (P00533 25-1210 T790M/C797S/L858R): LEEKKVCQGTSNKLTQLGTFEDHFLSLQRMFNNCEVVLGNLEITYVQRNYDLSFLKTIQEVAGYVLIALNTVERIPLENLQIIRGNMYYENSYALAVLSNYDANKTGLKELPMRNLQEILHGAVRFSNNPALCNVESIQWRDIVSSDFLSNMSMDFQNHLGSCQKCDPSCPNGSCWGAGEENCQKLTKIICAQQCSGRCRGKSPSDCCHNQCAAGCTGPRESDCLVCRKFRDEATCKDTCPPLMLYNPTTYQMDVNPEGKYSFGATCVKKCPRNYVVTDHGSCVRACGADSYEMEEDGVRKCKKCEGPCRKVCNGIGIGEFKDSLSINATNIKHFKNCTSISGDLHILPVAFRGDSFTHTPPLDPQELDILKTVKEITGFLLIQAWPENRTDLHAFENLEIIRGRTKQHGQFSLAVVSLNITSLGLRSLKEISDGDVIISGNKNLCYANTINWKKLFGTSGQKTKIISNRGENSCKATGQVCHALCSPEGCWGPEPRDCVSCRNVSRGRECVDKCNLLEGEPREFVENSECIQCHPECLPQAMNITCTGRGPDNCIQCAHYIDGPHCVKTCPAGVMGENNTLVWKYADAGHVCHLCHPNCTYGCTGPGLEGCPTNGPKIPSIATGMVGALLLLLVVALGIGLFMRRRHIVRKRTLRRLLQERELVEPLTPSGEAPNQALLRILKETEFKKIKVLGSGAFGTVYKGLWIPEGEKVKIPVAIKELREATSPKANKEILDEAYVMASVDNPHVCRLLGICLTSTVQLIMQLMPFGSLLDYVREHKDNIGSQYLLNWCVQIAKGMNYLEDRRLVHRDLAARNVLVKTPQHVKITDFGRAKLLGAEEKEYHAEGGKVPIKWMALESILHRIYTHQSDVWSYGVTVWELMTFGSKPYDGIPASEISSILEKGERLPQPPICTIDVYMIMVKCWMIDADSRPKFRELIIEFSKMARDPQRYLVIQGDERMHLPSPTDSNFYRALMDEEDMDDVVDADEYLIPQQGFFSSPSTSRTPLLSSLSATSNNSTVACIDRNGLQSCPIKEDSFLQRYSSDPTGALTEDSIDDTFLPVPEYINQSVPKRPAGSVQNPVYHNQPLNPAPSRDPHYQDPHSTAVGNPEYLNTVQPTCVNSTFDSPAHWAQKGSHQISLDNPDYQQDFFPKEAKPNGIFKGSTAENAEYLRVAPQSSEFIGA
How it was run: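 Human EGFR L858R/T790M/C797S mutant preincubated 10 min with compound (10-point dilution from 1 μM), then reacted 60 min at room temperature with ATP and kinase substrate 22. Substrate conversion read by Caliper mobility shift. % inhibition normalized to no-enzyme and no-compound wells, with IC50 from variable-slope log(inhibitor) fit.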

| Structure (SMILES) | IC50 [1] | IC50 [2] | inhibitory effect on EGFR phosphorylation (in words) [1] |
| --- | --- | --- | --- |
| CCc1cc(Nc2ncc(Cl)c(Nc3ccc(C)c(C)c3P(C)(C)=O)n2)c(OC)cc1N1CCC(N2CCN(C)CC2)CC1 [Comparative Compound A, reference compound] | 405 nM | 0.54 nM |  |
| CCc1cc(Nc2ncc(Cl)c(Nc3ccc(C)c(C)c3P(C)(C)=O)n2)c(OC)cc1N1CCC2(CC1)CC(N(C)C)C2 [Compound 6, (6-((5-chloro-2-((4-(2-(dimethylamino)-7-azaspiro[3.5]nonan-7-yl)-5-ethyl-2-methoxyphenyl)amino)pyrimidin-4-yl)amino)-2,3-dimethylphenyl)dimethylphosphine oxide] |  | 0.88 nM |  |
| CCc1cc(Nc2ncc(Cl)c(Nc3ccc(C)c(C)c3P(C)(C)=O)n2)c(OC)cc1N1CC2(CCN(C)CC2)C1 [Compound 24, (6-((5-Chloro-2-((5-ethyl-2-methoxy-4-(7-methyl-2,7-diazaspiro[3.5]non-2-yl)phenyl)amino)pyrimidin-4-yl)amino)-2,3-dimethylphenyl)dimethylphosphine oxide] | 150 nM | 0.55 nM | good inhibitory effect |
| CCc1cc(Nc2ncc(Cl)c(Nc3ccc(C)c(C)c3P(C)(C)=O)n2)c(OC)cc1N1CCC(N2C[C@H]3CC[C@@H](C2)N3C)CC1 [Compound 51, (6-((5-chloro-2-((5-ethyl-2-methoxy-4-(4-((1R,5S)-8-methyl-3,8-diazabicyclo[3.2.1]octan-3-yl)piperidin-1-yl)phenyl)amino)pyrimidin-4-yl)amino)-2,3-dimethylphenyl)dimethylphosphine oxide] | 132 nM | 0.0452 nM | good inhibitory effect |

Source: patent US20250101052A1, “COMPOUND FOR EGFR KINASE INHIBITOR, COMPOSITION, AND USE THEREOF” (INNOVATION INSTITUTE FOR ARTIFICIAL INTELLIGENCE IN …, priority 2021, published 2025)
